Laboratory results taken from US20240417406A1, “NITROGEN-CONTAINING TRICYCLIC COMPOUND AND PHARMACEUTICAL USE THEREOF” (JAPAN TOBACCO INC., priority 2021, published 2024).

Biological target: human PDHK2 (hPDHK2) (Homo sapiens (Human), UniProt Q15119)
Experiment: Inhibitory action of PDHK2 activity (PDH/hPDHK2 complex, residual PDH activity by NADH absorbance at 340 nm)
Format: biochemical
Settings: FLAG-tagged recombinant hPDHK2 with porcine heart PDH complex; PDHK reaction 45 min at room temperature
Method in brief: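 N-FLAG hPDHK2 from E. coli (0.5 μg/mL) preincubated overnight at 4 °C with porcine heart PDH complex (0.025 U/mL), pH 7.0 MOPS buffer. Pyruvate, CoA, NAD and TPP substrates added, 90 min at room temperature. Residual PDH activity from NADH A340 change, corrected for compound effect on PDH alone; IC50 from inhibition %.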

Row | IC50 [nM] | SMILES
1 | 9.1 | C[C@H]1Cc2nn(CCC(C)(C)O)cc2-c2onc([C@@](C)(O)C(F)(F)F)c21 [Example 41]
2 | 15.1 | C[C@H]1Cn2nc(N3CC4C(C3)C4(F)F)cc2-c2cnc([C@@](C)(O)C(F)(F)F)n21 (some centres unmarked) [Example 78]
3 | 6.6 | C[C@H]1Cn2nc(O[C@H]3CC[C@](C)(O)CC3)cc2-c2onc([C@@](C)(O)C(F)(F)F)c21 [Example 65, (1R,4r)-1-methyl-4-(((R)-4-methyl-3-((R)-1,1,1-trifluoro-2-hydroxypropan-2-yl)-4,5-dihydroisoxazolo[5,4-c]pyrazolo[1,5-a]pyridin-8-yl)oxy)cyclohexan-1-ol]
4 | 9.5 | C[C@H]1Cn2c(nnc2C23CC(C(F)(F)F)(C2)C3)-c2onc([C@@](C)(O)C(F)(F)F)c21 [Example 9]
5 | 9.1 | C[C@H]1Cn2nc(O[C@H]3C[C@](C)(C#N)C3)cc2-c2onc([C@@](C)(O)C(F)(F)F)c21 [Example 63, (1R,3r)-1-methyl-3-(((R)-4-methyl-3-((R)-1,1,1-trifluoro-2-hydroxypropan-2-yl)-4,5-dihydroisoxazolo[5,4-c]pyrazolo[1,5-a]pyridin-8-yl)oxy)cyclobutane-1-carbonitrile]
